Earlier results as cited in patent US6821541B2, “Anaerobic tea steeper and method of use” (priority 2002, dated 2004).
Read-outs that look alike come from different tables or passages of the source.

Key:
[1] = for stability in tea drinks: room temperature
[2] = test system: canine lymphoma (lymphosarcoma); details: dogs with lymphoma

In the case of O=C(O[C@@H]1Cc2c(O)cc(O)cc2O[C@@H]1c1ccc(O)c(O)c1)c1cc(O)c(O)c(O)c1 [ECG, (−) epicatechin gallate], the “stability in tea drinks” value [1] is given as “generally stable”.
For COc1cccc2c1C(=O)c1c(O)c3c(c(O)c1C2=O)C[C@@](O)(C(=O)CO)C[C@@H]3O[C@H]1C[C@H](N)[C@H](O)[C@H](C)O1 [Doxorubicin], the duration of remission ([2]; drug alone, guideline value) is given as 18-29 weeks.
In the case of (−) epigallocatechin gallate [EGCG], the “stability in aqueous solution” value ([1]; 4° C., 24 hours, pH 3-9) is listed as “stable”, the “level remaining after degradation” value ([1]; 24 hours at 50° C. and pH 5) is listed as “below 80 % of the initial concentration” and the “stability in tea drinks” value [1] is listed as “generally stable”.
In the case of Oc1cc(O)c2c(c1)O[C@H](c1ccc(O)c(O)c1)[C@H](O)C2 [EC, (−) epicatechin], the “stability in tea drinks” value [1] is listed as “generally stable”.
In the case of C[C@]12C=CC(=O)C=C1CC[C@@H]1[C@@H]2C(=O)C[C@@]2(C)[C@H]1CC[C@]2(O)C(=O)CO [Prednisone], the duration of remission ([2]; guideline values) is listed as “about 30 days”.
